According to ChEMBL document CHEMBL1124148 (J Med Chem, 1988):

Key:
[1] = Inhibition of FPGS from mouse liver in the presence of folic acid; assay type: functional
[2] = Cell-growth inhibition against SCC25 cell line; assay type: functional, cell-based; settings: Homo sapiens, SCC-25
[3] = Cell-growth inhibition against SCC25/R1 cell line; assay type: functional, cell-based; settings: Homo sapiens, SCC-25
[4] = test system: L1210; test: Inhibitory concentration against growth of L1210 cell line; assay type: functional, cell-based; settings: Mus musculus
[5] = Cell-growth inhibition against SCC15/R1 cell line; assay type: functional, cell-based; settings: Homo sapiens, SCC-15
[6] = Cell-growth inhibition against SCC15 cell line; assay type: functional, cell-based; settings: Homo sapiens, SCC-15
[7] = target: T1, Dihydrofolate reductase (Mus musculus, UniProt P00375)
T1 sequence (P00375 whole entry): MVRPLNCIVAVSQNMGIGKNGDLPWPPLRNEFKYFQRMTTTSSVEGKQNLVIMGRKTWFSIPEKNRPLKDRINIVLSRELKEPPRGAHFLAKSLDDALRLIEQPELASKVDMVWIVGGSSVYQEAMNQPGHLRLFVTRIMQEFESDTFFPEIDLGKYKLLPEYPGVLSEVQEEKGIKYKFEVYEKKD
Description: Inhibition of dihydrofolate reductase (DHFR) from murine leukemia cells

[8] = test system: L1210 ( R81); test: Inhibitory concentration against growth of L1210/R81 cell line; assay type: functional, cell-based; settings: Mus musculus
[9] = test system: SCC-25; test: Inhibitory concentration against growth of SCC25 cell line; assay type: functional, cell-based; settings: Homo sapiens
[10] = test system: SCC-15; test: Inhibitory concentration against growth of SCC15 cell line; assay type: functional, cell-based; settings: Homo sapiens
[11] = test system: SCC-15; test: Inhibitory concentration against growth of SCC15/R1 cell line; assay type: functional, cell-based; settings: Homo sapiens
[12] = test system: SCC-25; test: Inhibitory concentration against growth of SCC25/R1 cell line; assay type: functional, cell-based; settings: Homo sapiens

Row | Structure (SMILES) | Ki [1] | IC50 [4] | IC50 [7] | IC50 [8] | other results
1 | NCCCC(NC(=O)c1ccc(N(C=O)Cc2cnc3nc(N)nc(N)c3n2)cc1)C(=O)O (stereo not given) | 0.65 µM |  |  |  | 
2 | Nc1nc(N)c2nc(CNc3ccc(C(=O)NC(CCCNC(=O)c4ccccc4C(=O)O)C(=O)O)cc3)cnc2n1 (stereo not given) |  | 0.00075 µM |  |  | IC50 [2]: 0.00096 µM; IC50 [3]: 0.0013 µM; IC50 [5]: 0.004 µM; IC50 [6]: 0.0011 µM
3 | CC(=O)NCCCC(NC(=O)c1ccc(N(C=O)Cc2cnc3nc(N)nc(N)c3n2)cc1)C(=O)O (stereo not given) |  | 0.41 µM | 0.053 µM | 230 µM | 
4 | CN(Cc1cnc2nc(N)nc(N)c2n1)c1ccc(C(=O)NC(CCC(=O)OC(C)(C)C)C(=O)O)cc1 (stereo not given) |  |  |  |  | IC50 [2]: 0.4 µM; IC50 [3]: 0.78 µM; IC50 [5]: 1.3 µM; IC50 [6]: 0.6 µM
5 | CC(=O)NCCCC(NC(=O)c1ccc(NCc2cnc3nc(N)nc(N)c3n2)cc1)C(=O)O (stereo not given) | 68 µM | 0.017 µM | 0.028 µM | 81 µM | 
6 | Nc1nc(N)c2nc(CN(C=O)c3ccc(C(=O)NC(CCCNC(=O)c4ccc(Cl)cc4)C(=O)O)cc3)cnc2n1 (stereo not given) | > 100 µM | 0.2 µM | 0.015 µM | > 200 µM | 
7 | CN(Cc1cnc2nc(N)nc(N)c2n1)c1ccc(C(=O)N[C@@H](CCC(=O)O)C(=O)O)cc1 [METHOTREXATE] |  |  |  | 200 µM | IC50 [9]: 0.0075 µM; IC50 [10]: 0.038 µM; IC50 [11]: 0.58 µM; IC50 [12]: 0.15 µM
8 | Nc1nc(N)c2nc(CN(C=O)c3ccc(C(=O)NC(CCCNC(=O)CCC(=O)O)C(=O)O)cc3)cnc2n1 (stereo not given) | > 100 µM |  |  |  | 
9 | Nc1nc(N)c2nc(CNc3ccc(C(=O)NC(CCCNC(=O)c4ccc(Cl)cc4)C(=O)O)cc3)cnc2n1 (stereo not given) |  | 0.0032 µM | 0.028 µM | 27 µM | 
10 | Nc1nc(N)c2nc(CN(C=O)c3ccc(C(=O)NC(CCCNC(=O)c4ccccc4)C(=O)O)cc3)cnc2n1 (stereo not given) | > 1000 µM | 0.02 µM | 0.034 µM | 156 µM | 
11 | Nc1nc(N)c2nc(CN(C=O)c3ccc(C(=O)NC(CCCNC(=O)c4ccc(Cl)c(Cl)c4)C(=O)O)cc3)cnc2n1 (stereo not given) |  | 3.2 µM | 0.056 µM | > 200 µM | 
12 | Nc1nc(N)c2nc(CNc3ccc(C(=O)N[C@@H](CCCNC(=O)c4ccc(Cl)c(Cl)c4)C(=O)O)cc3)cnc2n1 |  | 0.032 µM | 0.045 µM |  | 
13 | Nc1nc(N)c2nc(CNc3ccc(C(=O)NC(CCCNC(=O)CCC(=O)O)C(=O)O)cc3)cnc2n1 (stereo not given) | 44 µM |  |  |  | 
14 | Nc1nc(N)c2nc(CNc3ccc(C(=O)NC(CCCNC(=O)c4ccccc4)C(=O)O)cc3)cnc2n1 (stereo not given) | > 100 µM | 0.00089 µM | 0.027 µM | 17 µM | 
15 | NCCCC(NC(=O)c1ccc(NCc2cnc3nc(N)nc(N)c3n2)cc1)C(=O)O (stereo not given) | 0.15 µM |  |  |  | 
